In patent US8637461B2, “Method of diagnosing and treating oxidative stress-impaired wound healing” (Kuwait University, priority 2011, dated 2014):

How the values were obtained:
PI3K = PI3K ELISA kinase assay on fibroblast lysates; assay type: cell-based, rat; conditions: diabetic, TNF-α- or dexamethasone-exposed cells; co-exposure to EUK-134
Description: (§1) Primary dermal fibroblasts were obtained from dorsal skin of female Goto Kakizaki (GK, age 12-15 months) rats, a model for non-obese type 2 diabetes, and their Wistar control counterparts. After sterilization in povidine solution, rat skin was washed in sterile water and rinsed in 70% ethanol in PBS. Epidermis and dermis were separated following overnight incubation in 0.25% trypsine/EDTA at 4 C. Dermis was cut into small pieces and incubated in Dulbecco's modified Eagle medium (DMEM; Invitrogen) containing collagenase (250 U/ml; Sigma) for thirty min at 37 C in 5% CO2 with constant agitation. The sections were triturated vigorously to release fibroblasts, which were collected by centrifugation. The cell pellet was washed two times with PBS, re-suspended in complete medium (DMEM supplemented with 10% fetal calf serum, penicillin (100 U/ml), streptomycin (100 μg/ml)), 2 mM L-glutamine and 10 mM HEPES) and then cultured under a standard condition.
(§2) A hypercortisolemic state was mimicked by exposing control fibroblasts to dexamethasone (Dexa, Sigma) administered at 20 ng/ml every other day for a duration of 8 days. […] The concentration of IGF-1 (50 ng/ml, Peprotech) was determined by prior dose response experiment.
PI3K activity was measured using PI3K ELISA (Echelon Biosciences Inc). […]

[1] = Body weight and fasting plasma parameters in diabetic and hypercortisolemic rats; assay type: in vivo, rat
Description: All animal procedures were performed in accordance with the NIH Guidance for the Care and Use of Laboratory Animals. The current study used, respectively the GK and Dexamethasone-treated rats as models for diabetes and hypercortisolemia. Dexamethasone was administered subcutaneously at a dose of 2.5 μg/kg body weight in the morning (8:00 AM) and in the evening (8:00 PM) for a duration of four weeks before wounding and this form of therapy continued during the course of healing. […] Weight and age-matched female Wistar rats (Kuwait University breeding colony) served as the corresponding controls. All of the animals were maintained under standard conditions with 12 hours on/off light cycle, commercial diet, and water ad libitum. GK rats destined for wounding were initially matched with regard to body weight (e.g., 230 to 250 g), and plasma levels of glucose, free fatty acids and insulin. These indices are commonly used to reflect the severity of the diabetic state.
Animals used for IGF-1 sensitivity (n=6/group) and wound healing (n=8) studies were partitioned into five study groups including control, diabetic, hypercortisolemic, diabetic+EUK and hypercortisolemic+EUK. The EUK-134 was administered for duration of four weeks before wound induction and it continued during the course of healing.

dermal fibroblasts [2] = assay: Collagen gel contraction assay with fibroblasts; assay type: cell-based, rat; conditions: diabetic, TNF-α- or dexamethasone-exposed cells; EUK-134
Description: as §1, §2
The ability of fibroblasts to migrate in response to IGF-I in each of our models of oxidative stress-induced IGF-1 resistance was also evaluated. […]

COL1A1 mRNA = assay: Real time PCR of COL1A1 mRNA in fibroblasts; assay type: cell-based, rat; conditions: diabetic, TNF-α- or dexamethasone-exposed cells; EUK-134
Description: as §1
as §2, with “days. Similarly, the state of low-grade inflammation in fibroblasts was recapitulated experimentally by exposing these cells to TNF-α (4 ng/ml every day for 4 days).” for “days.”, “experiment. […]” for “experiment.”

IRS-1 = IRS-1 Tyr612 phosphorylation, immunoprecipitation/western blotting in dermal fibroblasts; assay type: cell-based, rat
Description: as §1
as §2, with “days. Similarly, the state of low-grade inflammation in fibroblasts was recapitulated experimentally by exposing these cells to TNF-α (4 ng/ml every day for 4 days).” for “days.”
Levels/activities of key intracellular molecules in the IGF-1 signaling cascade including IRS-1, IRS-1 Tyr-p-612, PI3K-p85α, IRS-1 Ser-p (307), PI3K, Akt, p-Akt, INK and p-JNK were assessed using western blotting/immunoprecipitation and commercially available ELISA-based assays.
Ice-cold radioimmunoprecipitation assay (RIPA) buffer was used for the extraction of proteins from fibroblasts. Immunoprecipitation was achieved by incubating cell homogenates with anti-IRS-1 antibody overnight at 4° C. followed by the addition of protein A/G-Agarose for additional two hours. Immunoprecipitates were separated using spin-collection filters (Cytosignal), washed once with RIPA buffer/3× with PBS and then elutated by the addition of Laemmli buffer. […] Antigen-antibody complexes were visualized by an enhanced chemiluminescence system on BioMax Light Film (Kodack) and then the densitometry was analyzed using Quantity One 1-D image software (BioRad, GS 800). All densitometry data were corrected for equal loading using the house keeping gene β-actin and they were expressed as fold change vs. control.

dermal fibroblasts [3] = assay: BrdU cell proliferation assay in fibroblasts; assay type: cell-based, rat; conditions: fibroblasts with diabetic, inflammatory or hypercortisolemia phenotypes; ROS suppressors
Description: as §1
as §2, with “days. Similarly, the state of low-grade inflammation in fibroblasts was recapitulated experimentally by exposing these cells to TNF-α (4 ng/ml every day for 4 days).” for “days.”
The proliferation and collagen synthesis of cultured fibroblasts were determined using, respectively the 5-bromo-2-deoxyuridine (BrdU) incorporation into DNA and a radiolabelled proline uptake assay.
Cells were seeded into 96-microtiter plates at a concentration of 1.5×10^4 and allowed to adhere overnight in DMEM supplemented with 10% FCS. After arrest by incubation in DMEM supplemented with 0.5% FCS for 24 hrs, cells were exposed to IGF-I (50 ng/ml) in DMEM containing […] 5-bromo-2-deoxyuridine (BrdUrd). Incorporation of BrdUrd into DNA was estimated using 5-bromo-2-deoxyuridine labeling and detection kit (Roche Applied Science) according to the manufacturer's instructions.

cultured fibroblasts = assay: WST-based cell viability of cultured fibroblasts; parameters: species or system rat; conditions: EUK 100 μM, LA 500 μM
[4] = dexamethasone-treated (hypercortisolemic) rats + EUK-134 12.5 mg/kg ip every other day
[5] = diabetic (GK) rats + EUK-134 12.5 mg/kg ip every other day

COc1cccc(C=NCCN=Cc2cccc(OC)c2[O-])c1[O-].[Cl-].[Mn+3] [EUK-134]
PI3K enzymatic activity (PI3K): partially restored
FBG (fasting blood glucose) [1, 4]: 81 ± 12 mg/dL
FFA (free fatty acid) [1, 4]: 327 ± 16 µM
FPI (fasting plasma insulin) [1, 4]: 0.58 ± 0.052 ng/mL
FBG (fasting blood glucose) [1, 5]: 122 ± 18 mg/dL
FFA (free fatty acid) [1, 5]: 353 ± 18 µM
FPI (fasting plasma insulin) [1, 5]: 0.66 ± 0.05 ng/mL
abnormalities regarding lipid and carbohydrate profiles ([1]; diabetic and hypercortisolemic rats, chronic treatment with ROS suppressors): ameliorated
contractility in collagen gel assay (dermal fibroblasts [2]): partially restores this contractility to control levels
collagen mRNA synthesis (COL1A1 mRNA): returns it to approximately control levels
inhibition of IGF-1-induced IRS-1 Tyr612 phosphorylation (IRS-1; diabetic fibroblasts or normal fibroblasts exposed to TNF-α or dexamethasone, EUK-134): ameliorates the inhibition of IRS-1 phosphorylation
common defect in IGF-1 signaling (IRS-1; fibroblasts with diabetic, inflammatory or hypercortisolemia phenotypes, ROS suppressors): correct the common defect in IGF-1 signaling
impairment in key fibroblast functions (collagen synthesis, cell proliferation, migration, contraction) (dermal fibroblasts [3]): ameliorates
effect on cell viability (WST-based technique) (cultured fibroblasts): minimum effect on cell viability
